# Test results: PubChem BioAssay AID2060496 (Molecular Pharmacology Branch, DTP, NCI, 2025)
# System: 276233-004-R-J1-PDC complex spheroid viability
# Assay: Anticancer human tumor 276233-004-R-J1-PDC patient-derived colon adenocarcinoma cell line growth inhibition [GQUAD]
# Details: for IC50: curve of first compound; for viability, T/C: stronger effect = lower value
# Excerpt: DNA G-quadruplex Stabilizer Agents in Combinations in Complex Spheroids
# A high-throughput screen of multi-cell type tumor spheroids was designed to identify active combinations of DNA G-quadruplex stabilizer agents and targeted small molecules. Complex spheroids include a stromal component modeled by human endothelial cells (HUVEC) and fibroblasts modeled by human mesenchymal stem cells (MSCs). The concentration ranges selected for each drug and investigational agent were based upon clinically achievable concentrations if the clinical Cmax of the agent was known.
# Compounds. The drugs and investigational agents: pidnarulex (CX-5461; NSC782164), APTO-253 (NSC789042), BRACO-19 (NSC847499), peposertib (NSC802822), ceralasertib (NSC780249), elimusertib (NSC800525), camonsertib (NSC841442), AZD-1390 (NSC803789), olaparib (NSC753686), talazoparib (NSC767125), ART-558 (NSC835418), sotorasib (NSC818433), MRTX-1133 (NSC836407), SN-38 (NSC673596), topotecan (NSC609699), etoposide (NSC141540), doxorubicin (NSC123127), gemcitabine (NSC613327), 5-fluorouracil (NSC19893), paclitaxel (NSC125973), vemurafenib (NSC761431), panobinostat (NSC761190), R-306465 (JNJ-16241199; NSC773264), adavosertib (NSC754352), TP-3654 (NSC805149), carboplatin (NSC241240), KSQ-4279 (NSC840948), and staurosporine (NSC755774) were obtained from the National Cancer Institute (NCI) Developmental Therapeutics Program Chemical Repository (34). The FDA-approved anticancer drug set is available from the NCI Developmental Therapeutics Program. […] The stock solutions were prepared in dimethyl sulfoxide (DMSO, Sigma-Aldrich, St. Louis, MO, cat. D2650) at 800-fold the tested concentration and stored at -70 degrees C prior to their use. All drugs and investigational agents were tested over a range starting from a high concentration at or near the clinical Cmax and decreasing in half-log increments. If the clinical Cmax for an agent had not been determined, the highest concentration tested was 10 microM.
# 2.3 Cell Culture. All cells were maintained in an incubator at 37 degrees C and 5% CO2 with 95% humidity. The PDC lines were cultured according to standard operating procedures established by the NCI PDMR. All PDCs were thawed and cultured in Matrigel-coated flasks prepared with a working solution of 1X Ham's F-12 nutrient mix, without supplementation (Invitrogen, cat. 11765054), 100 U/mL penicillin-streptomycin (Invitrogen, cat. 15140122), and 2.5% Matrigel (Corning Inc., cat. 354248) for the first three passages. The 857933-349-R-J2-PDC line was cultured in 6C/Colon 1B media, which includes advanced DMEM/F-12 (Thermo Fisher Scientific, cat. 12634028), 10 mM HEPES (Thermo Fisher Scientific, cat. 15630080), 1X GlutaMAX supplement (Thermo Fisher Scientific, cat. 35050061), 0.1 mg/mL primocin (InvivoGen, cat. ant-pm-2), 10% defined fetal bovine serum, heat inactivated (HyClone Laboratories Inc., cat. SH30070.03HI), 50% L-WRN conditioned media (ATCC, cat. CRL-3276), 1.25 mM N-Acetyl-L-cysteine (Sigma-Aldrich, cat. A9165), 10 mM nicotinamide (Sigma-Aldrich, cat. N0636), 1X B-27 supplement (Thermo Fisher Scientific, cat. 17504044), 1X N-2 supplement (Thermo Fisher Scientific, cat. 17502048), 10 microM Y-27632 dihydrochloride (Tocris Bioscience, cat. 1254), and 50 ng/mL human EGF recombinant protein (Thermo Fisher Scientific, cat. PHG0311). The 485176-168-R4-J1-PDC line was cultured in Panc media, which includes all 6C/Colon 1B media components plus 100 ng/mL human FGF-10 (Thermo Fisher Scientific, cat. 100-26), 500 nM SB-431542 (Selleckchem, cat. S1067), and gastrin (Tocris, cat. 3006).
# […]
# [1] = second compound 0.0316 µM, first compound 0.0316 µM
# [2] = second compound 0.0316 µM, first compound 0.1 µM
# [3] = second compound 0.0316 µM, first compound 0.316 µM
# [4] = second compound 0.0316 µM, first compound 1 µM
# [5] = second compound 0.0316 µM, first compound 3.16 µM
# [6] = second compound 0.0316 µM, first compound 10 µM
# [7] = second compound 0.1 µM, first compound 0.0316 µM
# [8] = second compound 0.1 µM, first compound 0.1 µM
# [9] = second compound 0.1 µM, first compound 0.316 µM
# [10] = second compound 0.1 µM, first compound 1 µM
# [11] = second compound 0.1 µM, first compound 3.16 µM
# [12] = second compound 0.1 µM, first compound 10 µM
# [13] = second compound 0.316 µM, first compound 0.0316 µM
# [14] = second compound 0.316 µM, first compound 0.1 µM
# [15] = second compound 0.316 µM, first compound 0.316 µM
# [16] = second compound 0.316 µM, first compound 1 µM
# [17] = second compound 0.316 µM, first compound 3.16 µM
# [18] = second compound 0.316 µM, first compound 10 µM
# [19] = second compound 1 µM, first compound 0.0316 µM
# [20] = second compound 1 µM, first compound 0.1 µM
# [21] = second compound 1 µM, first compound 0.316 µM
# [22] = second compound 1 µM, first compound 1 µM
# [23] = second compound 1 µM, first compound 3.16 µM
# [24] = second compound 1 µM, first compound 10 µM
# [25] = second compound 3.16 µM, first compound 0.0316 µM
# [26] = second compound 3.16 µM, first compound 0.1 µM
# [27] = second compound 3.16 µM, first compound 0.316 µM
# [28] = second compound 3.16 µM, first compound 1 µM
# [29] = second compound 3.16 µM, first compound 3.16 µM
# [30] = second compound 3.16 µM, first compound 10 µM
# [31] = second compound 10 µM, first compound 0.0316 µM
# [32] = second compound 10 µM, first compound 0.1 µM
# [33] = second compound 10 µM, first compound 0.316 µM
# [34] = second compound 10 µM, first compound 1 µM
# [35] = second compound 10 µM, first compound 3.16 µM
# [36] = second compound 10 µM, first compound 10 µM
# 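Further: spheroids exposed to drugs for seven days.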
# 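Wherever viability, T/C is given: 100% = DMSO vehicle control viability.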
structure (smiles),measurement,setting,value
COc1ccc([C@@H](O)c2cc(-c3ncnc4cc(N5CCOCC5)ccc34)c(F)cc2Cl)nn1 + CN(C)c1ccc(Nc2c3ccc(NC(=O)CCN4CCCC4)cc3nc3cc(NC(=O)CCN4CCCC4)ccc23)cc1,IC50,second compound 0.0316 µM,> 10 µM
same,IC50,second compound 0.1 µM,5.54 µM
same,IC50,second compound 0.316 µM,0.612 µM
same,IC50,second compound 1 µM,3.46 µM
same,IC50,second compound 3.16 µM,0.127 µM
same,IC50,second compound 10 µM,0.134 µM
same,"viability, T/C",[1],88.8%
same,"viability, T/C",[2],94.6%
same,"viability, T/C",[3],87.7%
same,"viability, T/C",[4],74.5%
same,"viability, T/C",[5],61%
same,"viability, T/C",[6],54.2%
same,"viability, T/C",[7],79.4%
same,"viability, T/C",[8],79.3%
same,"viability, T/C",[9],76.3%
same,"viability, T/C",[10],70.2%
same,"viability, T/C",[11],52.9%
same,"viability, T/C",[12],46.8%
same,"viability, T/C",[13],78%
same,"viability, T/C",[14],63.7%
same,"viability, T/C",[15],52%
same,"viability, T/C",[16],49.1%
same,"viability, T/C",[17],43.7%
same,"viability, T/C",[18],39.1%
same,"viability, T/C",[19],56.5%
same,"viability, T/C",[20],49.5%
same,"viability, T/C",[21],62.5%
same,"viability, T/C",[22],48.8%
same,"viability, T/C",[23],52.4%
same,"viability, T/C",[24],38.2%
same,"viability, T/C",[25],47.4%
same,"viability, T/C",[26],54.2%
same,"viability, T/C",[27],47.6%
same,"viability, T/C",[28],42.2%
same,"viability, T/C",[29],39%
same,"viability, T/C",[30],40.1%
same,"viability, T/C",[31],48.3%
same,"viability, T/C",[32],56.2%
same,"viability, T/C",[33],37.6%
same,"viability, T/C",[34],41.8%
same,"viability, T/C",[35],46.8%
same,"viability, T/C",[36],47.5%
Cc1cccc(N(C)C(=O)C2C(O)CCN2c2nc(C)cc(C(F)(F)F)c2C#N)c1 (centres undefined) + CN(C)c1ccc(Nc2c3ccc(NC(=O)CCN4CCCC4)cc3nc3cc(NC(=O)CCN4CCCC4)ccc23)cc1,IC50,second compound 0.0316 µM,> 10 µM
same,IC50,second compound 0.1 µM,> 10 µM
same,IC50,second compound 0.316 µM,> 10 µM
same,IC50,second compound 1 µM,> 10 µM
same,IC50,second compound 3.16 µM,> 10 µM
same,IC50,second compound 10 µM,< 0.0316 µM
same,"viability, T/C",[1],77.3%
same,"viability, T/C",[2],74.1%
same,"viability, T/C",[3],86.7%
same,"viability, T/C",[4],97.1%
same,"viability, T/C",[5],98.1%
same,"viability, T/C",[6],101%
same,"viability, T/C",[7],96.8%
same,"viability, T/C",[8],98.1%
same,"viability, T/C",[9],89.5%
same,"viability, T/C",[10],89.2%
same,"viability, T/C",[11],86.5%
same,"viability, T/C",[12],96%
same,"viability, T/C",[13],71.2%
same,"viability, T/C",[14],75.4%
same,"viability, T/C",[15],73.2%
same,"viability, T/C",[16],50.7%
same,"viability, T/C",[17],60.5%
same,"viability, T/C",[18],68.1%
same,"viability, T/C",[19],57.3%
same,"viability, T/C",[20],47.1%
same,"viability, T/C",[21],63.1%
same,"viability, T/C",[22],57.6%
same,"viability, T/C",[23],51.2%
same,"viability, T/C",[24],64.9%
same,"viability, T/C",[25],51%
same,"viability, T/C",[26],49.3%
same,"viability, T/C",[27],50.6%
same,"viability, T/C",[28],55.9%
same,"viability, T/C",[29],65.8%
same,"viability, T/C",[30],68.7%
same,"viability, T/C",[31],39.7%
same,"viability, T/C",[32],51.5%
same,"viability, T/C",[33],41.2%
same,"viability, T/C",[34],72.6%
same,"viability, T/C",[35],63.1%
same,"viability, T/C",[36],54.8%
